Reference: ChEMBL document CHEMBL1201862, “PubChem BioAssay data set” (2004)
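Dose response: 5 concentrations. Exposure: 48 h. Format: 96-well plates. Endpoint: linear interpolation; highest concentration if not reached. Here, GI50 denotes the concentration required for 50% inhibition of growth.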 Active and inactive are the calls of the source. Cut-off read from the data, not from the text of the source: active = GI50 up to about 1.1 µM and inactive = higher.

Key:
Test in all cases: growth of human tumour cells (NCI), 48 h
UACC-62 = system: UACC-62
SF-539 = system: SF-539
IGROV-1 = system: IGROV-1
M14 = system: M14
HCT-116 = system: HCT-116
MCF7 = system: MCF7
SK-OV-3 = system: SK-OV-3
DU-145 = system: DU-145
SW-620 = system: SW-620
HT-29 = system: HT-29
HOP-92 = system: HOP-92
A498 = system: A498
SF-295 = system: SF-295
KM12 = system: KM12
Hs-578T = system: Hs-578T
SK-MEL-2 = system: SK-MEL-2
MDA-MB-231 = system: MDA-MB-231
NCI-H226 = system: NCI-H226
COLO 205 = system: COLO 205
HL-60 = system: HL-60
SR = system: SR
Malme-3M = system: Malme-3M
NCI-H23 = system: NCI-H23
RXF 393 = system: RXF 393
ACHN = system: ACHN
OVCAR-3 = system: OVCAR-3
LOX IMVI = system: LOX IMVI
NCI/ADR-RES = system: NCI/ADR-RES
OVCAR-4 = system: OVCAR-4
NCI-H460 = system: NCI-H460
T47D = system: T47D
NCI-H522 = system: NCI-H522
SNB-19 = system: SNB-19
HCC 2998 = system: HCC 2998
SNB-75 = system: SNB-75
OVCAR-5 = system: OVCAR-5
UO-31 = system: UO-31
HCT-15 = system: HCT-15
SK-MEL-5 = system: SK-MEL-5
EKVX = system: EKVX
K562 = system: K562
HOP-62 = system: HOP-62
TK-10 = system: TK-10
CAKI-1 = system: CAKI-1
SN12C = system: SN12C
U-251 = system: U-251
CCRF-CEM = system: CCRF-CEM
BT-549 = system: BT-549
MDA-MB-435 = system: MDA-MB-435
UACC-257 = system: UACC-257
A549 = system: A549
SF-268 = system: SF-268
786-0 = system: 786-0
MOLT-4 = system: MOLT-4
OVCAR-8 = system: OVCAR-8
SK-MEL-28 = system: SK-MEL-28
RPMI-8226 = system: RPMI-8226
PC-3 = system: PC-3

For `CCOC(=O)C(C(=O)OCC)C(=O)c1ccccc1C(=O)c1ccccc1`, the GI50 (UACC-62) was > 100 µM (inactive), the GI50 (SF-539) was > 100 µM (inactive) and the GI50 (IGROV-1) was > 100 µM (inactive). For the same molecule, the GI50 (M14) was > 100 µM (inactive), the GI50 (HCT-116) was 59 µM (inactive) and the GI50 (MCF7) was > 100 µM (inactive). For the same molecule, the GI50 (SK-OV-3) was > 100 µM (inactive), the GI50 (DU-145) was 43.8 µM (inactive) and the GI50 (SW-620) was 19.5 µM (inactive). For the same molecule, the GI50 (HT-29) was 28.4 µM (inactive), the GI50 (HOP-92) was > 100 µM (inactive) and the GI50 (A498) was > 100 µM (inactive). The GI50 (SF-295) was > 100 µM (inactive), the GI50 (KM12) was > 100 µM (inactive) and the GI50 (Hs-578T) was 84.7 µM (inactive). For the same molecule, the GI50 (SK-MEL-2) was > 100 µM (inactive), the GI50 (MDA-MB-231) was > 100 µM (inactive) and the GI50 (NCI-H226) was > 100 µM (inactive). For the same molecule, the GI50 (COLO 205) was > 100 µM (inactive), the GI50 (HL-60) was > 100 µM (inactive) and the GI50 (SR) was 18.1 µM (inactive). For the same molecule, the GI50 (Malme-3M) was > 100 µM (inactive), the GI50 (NCI-H23) was > 100 µM (inactive) and the GI50 (RXF 393) was > 100 µM (inactive). The GI50 (ACHN) was > 100 µM (inactive), the GI50 (OVCAR-3) was 74 µM (inactive) and the GI50 (LOX IMVI) was > 100 µM (inactive). The GI50 (NCI/ADR-RES) was > 100 µM (inactive), the GI50 (OVCAR-4) was > 100 µM (inactive) and the GI50 (NCI-H460) was > 100 µM (inactive). The GI50 (T47D) was > 100 µM (inactive), the GI50 (NCI-H522) was > 100 µM (inactive) and the GI50 (SNB-19) was > 100 µM (inactive). For the same molecule, the GI50 (HCC 2998) was > 100 µM (inactive), the GI50 (SNB-75) was > 100 µM (inactive) and the GI50 (OVCAR-5) was > 100 µM (inactive). The GI50 (UO-31) was > 100 µM (inactive), the GI50 (HCT-15) was over 100 µM and the GI50 (SK-MEL-5) was 97.1 µM (inactive). The GI50 (EKVX) was 26.1 µM (inactive), the GI50 (K562) was > 100 µM (inactive) and the GI50 (HOP-62) was > 100 µM (inactive). For the same molecule, the GI50 (TK-10) was > 100 µM (inactive), the GI50 (CAKI-1) was > 100 µM (inactive) and the GI50 (SN12C) was > 100 µM (inactive). For the same molecule, the GI50 (U-251) was > 100 µM (inactive), the GI50 (CCRF-CEM) was 96.2 µM (inactive) and the GI50 (BT-549) was 33.4 µM (inactive). The GI50 (MDA-MB-435) was > 100 µM (inactive), the GI50 (UACC-257) was > 100 µM (inactive) and the GI50 (A549) was > 100 µM (inactive). The GI50 (SF-268) was > 100 µM (inactive), the GI50 (786-0) was > 100 µM (inactive) and the GI50 (MOLT-4) was 23.4 µM (inactive).
With `O=C1C(Cl)=C(N2CCN(CCOCCO)CC2)C(=O)c2ncccc21` the GI50 (UACC-62) was > 10 µM (inactive), the GI50 (SF-539) was > 10 µM (inactive) and the GI50 (IGROV-1) was > 10 µM (inactive). The GI50 (M14) was > 10 µM (inactive), the GI50 (HCT-116) was 5.07 µM (inactive) and the GI50 (MCF7) was > 10 µM (inactive). The GI50 (SK-OV-3) was > 10 µM (inactive), the GI50 (DU-145) was > 10 µM (inactive) and the GI50 (SW-620) was > 10 µM (inactive). The GI50 (HT-29) was > 10 µM (inactive), the GI50 (HOP-92) was 1.63 µM (inactive) and the GI50 (A498) was > 10 µM (inactive). The GI50 (SF-295) was > 10 µM (inactive), the GI50 (KM12) was > 10 µM (inactive) and the GI50 (Hs-578T) was > 10 µM (inactive). The GI50 (SK-MEL-2) was > 10 µM (inactive), the GI50 (OVCAR-8) was > 10 µM (inactive) and the GI50 (MDA-MB-231) was > 10 µM (inactive). For the same molecule, the GI50 (NCI-H226) was > 10 µM (inactive), the GI50 (COLO 205) was > 10 µM (inactive) and the GI50 (HL-60) was 3.35 µM (inactive). The GI50 (SR) was > 10 µM (inactive), the GI50 (Malme-3M) was 7.85 µM (inactive) and the GI50 (NCI-H23) was > 10 µM (inactive). The GI50 (RXF 393) was 3.69 µM (inactive), the GI50 (ACHN) was > 10 µM (inactive) and the GI50 (OVCAR-3) was > 10 µM (inactive). For the same molecule, the GI50 (LOX IMVI) was > 10 µM (inactive), the GI50 (NCI/ADR-RES) was > 10 µM (inactive) and the GI50 (OVCAR-4) was > 10 µM (inactive). The GI50 (NCI-H460) was > 10 µM (inactive), the GI50 (T47D) was 2.23 µM (inactive) and the GI50 (NCI-H522) was 2.56 µM (inactive). For the same molecule, the GI50 (SNB-19) was > 10 µM (inactive), the GI50 (HCC 2998) was > 10 µM (inactive) and the GI50 (SNB-75) was > 10 µM (inactive). For the same molecule, the GI50 (OVCAR-5) was > 10 µM (inactive), the GI50 (HCT-15) was over 10 µM and the GI50 (SK-MEL-5) was > 10 µM (inactive). For the same molecule, the GI50 (EKVX) was > 10 µM (inactive), the GI50 (K562) was > 10 µM (inactive) and the GI50 (HOP-62) was > 10 µM (inactive). For the same molecule, the GI50 (TK-10) was > 10 µM (inactive), the GI50 (CAKI-1) was > 10 µM (inactive) and the GI50 (SN12C) was > 10 µM (inactive). For the same molecule, the GI50 (U-251) was > 10 µM (inactive), the GI50 (CCRF-CEM) was 0.001 µM (active) and the GI50 (BT-549) was > 10 µM (inactive). The GI50 (MDA-MB-435) was 2.65 µM (inactive), the GI50 (SK-MEL-28) was > 10 µM (inactive) and the GI50 (UACC-257) was > 10 µM (inactive). The GI50 (A549) was > 10 µM (inactive), the GI50 (SF-268) was > 10 µM (inactive) and the GI50 (RPMI-8226) was 7.1 µM (inactive). For the same molecule, the GI50 (786-0) was > 10 µM (inactive), the GI50 (MOLT-4) was > 10 µM (inactive) and the GI50 (PC-3) was > 10 µM (inactive).
